# Laboratory results: paper PMC4503722, “Novel Phenotypic Outcomes Identified for a Public Collection of Approved Drugs from a Publicly Accessible Panel of Assays” (PLoS ONE, 2015)
# Read-outs that look alike come from different tables or passages of the source.
# Columns and labels:
# [1] = test system: endothelial tube formation in co-cultures of ECFCs and ADSCs treated with VEGF; test: cells; type: cell-based, human
# INS-1E cells = test: cells; type: cell-based, rat;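 further: secreted insulin quantified by homogeneous immunoassay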
# NCI-H716 cells = test: cells; type: cell-based, Human
# STC-1 cell line = type: cell-based, mouse
# [2] = test system: ECFC/ADSC co-culture cell nuclei number
# DLD-1 = test: cells; type: cell-based
# SW480 = test: cells; type: cell-based
# HCT116 = test: cells; type: cell-based
# [3] = test system: HCT116 cells treated with a GSK3β inhibitor; test: cells; type: cell-based
# Colo320 = test: cells; type: cell-based
# HT-29 = test: cells; type: cell-based
# RKO = test: cells; type: cell-based
# SNU-C1 = test: cells; type: cell-based
# HeLa cells = test: cells; type: cell-based
# [4] = assay number 26, GSK3b inhibitor pretreated
smiles,measurement,setting,value
CC(C)CCCC(C)NCCC(C)C (centres unmarked) [NCGC00261980-01],VEGF_ADSC\ECFC Angio CD31 TubeArea IC50/EC50,[1],> 10 µM
same,5mMGluc_INS1E SecretionMod IC50/EC50,"INS-1E cells; assay number 8, 5 mM glucose",> 33.33 µM
same,hNCI-H716 GLP1 Secretion IC50/EC50,NCI-H716 cells; assay number 12,> 40 µM
same,mSTC-1 GLP1 Secretion IC50/EC50,STC-1 cell line; assay number 13,> 40 µM
same,VEGF_ADSC\ECFC Angio Hoechst NucArea IC50/EC50,[2],> 10 µM
COCC(=O)O[C@]1(CCN(C)CCCc2nc3ccccc3[nH]2)CCc2cc(F)ccc2[C@@H]1C(C)C [NCGC00161420-06],VEGF_ADSC\ECFC Angio CD31 TubeArea IC50/EC50,[1],> 10 µM
same,hNCI-H716 GLP1 Secretion IC50/EC50,NCI-H716 cells; assay number 12,> 40 µM
same,mSTC-1 GLP1 Secretion IC50/EC50,STC-1 cell line; assay number 13,8.237 µM
same,Basal_Viability ATP DLD-1 IC50/EC50,DLD-1; assay number 23,7.2629 µM
same,Basal_Viability ATP SW480 IC50/EC50,SW480; assay number 24,4.5426 µM
same,Basal_Viability ATP HCT116 IC50/EC50,"HCT116; assay number 25, basal",12.3743 µM
same,GSK3b inh pretreated_Viability ATP HCT116 IC50/EC50,[3]; [4],5.3311 µM
same,Basal_Viability ATP Colo 320 IC50/EC50,Colo320; assay number 27,10.5076 µM
same,Basal_Viability ATP HT-29 IC50/EC50,HT-29; assay number 28,3.0782 µM
same,Basal_Viability ATP RKO IC50/EC50,RKO; assay number 29,6.7187 µM
same,Basal_Viability ATP SNU-C1 IC50/EC50,SNU-C1; assay number 30,5.4372 µM
same,VEGF_ADSC\ECFC Angio Hoechst NucArea IC50/EC50,[2],> 10 µM
CN1CCCC(CC2c3ccccc3Sc3ccccc32)C1.Cl (centres unmarked) [NCGC00273481-01],VEGF_ADSC\ECFC Angio CD31 TubeArea IC50/EC50,[1],8.6842 µM
same,5mMGluc_INS1E SecretionMod IC50/EC50,INS-1E cells,> 11.11 µM
same,hNCI-H716 GLP1 Secretion IC50/EC50,NCI-H716 cells,> 40 µM
same,mSTC-1 GLP1 Secretion IC50/EC50,STC-1 cell line,> 40 µM
same,Hela CellCycMod PI 2N IC50/EC50,HeLa cells,> 10 µM
same,Hela CellCycMod PI 4N IC50/EC50,HeLa cells,> 10 µM
same,Hela CellCycMod PI Cell Number IC50/EC50,HeLa cells,> 10 µM
same,Hela CellCycMod PI MI IC50/EC50,HeLa cells,> 10 µM
same,Basal_Viability ATP DLD-1 IC50/EC50,DLD-1,> 20 µM
same,Basal_Viability ATP SW480 IC50/EC50,SW480,4.7038 µM
same,Basal_Viability ATP HCT116 IC50/EC50,HCT116,> 20 µM
same,GSK3b inh pretreated_Viability ATP HCT116 IC50/EC50,[3],8.6816 µM
same,Basal_Viability ATP Colo 320 IC50/EC50,Colo320,> 20 µM
same,Basal_Viability ATP HT-29 IC50/EC50,HT-29,6.4328 µM
same,Basal_Viability ATP RKO IC50/EC50,RKO,3.4891 µM
same,Basal_Viability ATP SNU-C1 IC50/EC50,SNU-C1,15.0863 µM
same,VEGF_ADSC\ECFC Angio Hoechst NucArea IC50/EC50,[2],> 10 µM
Cc1ccc(O)cc1 [NCGC00091519-09],VEGF_ADSC\ECFC Angio CD31 TubeArea IC50/EC50,[1],> 10 µM
same,5mMGluc_INS1E SecretionMod IC50/EC50,"INS-1E cells; assay number 8, 5 mM glucose",> 33.33 µM
same,hNCI-H716 GLP1 Secretion IC50/EC50,NCI-H716 cells; assay number 12,> 40 µM
same,mSTC-1 GLP1 Secretion IC50/EC50,STC-1 cell line; assay number 13,> 40 µM
same,VEGF_ADSC\ECFC Angio Hoechst NucArea IC50/EC50,[2],> 10 µM
COC(=O)C(Cl)C(=O)OC [NCGC00249607-02],VEGF_ADSC\ECFC Angio CD31 TubeArea IC50/EC50,[1],> 10 µM
same,5mMGluc_INS1E SecretionMod IC50/EC50,"INS-1E cells; assay number 8, 5 mM glucose",> 33.33 µM
same,hNCI-H716 GLP1 Secretion IC50/EC50,NCI-H716 cells; assay number 12,> 40 µM
same,mSTC-1 GLP1 Secretion IC50/EC50,STC-1 cell line; assay number 13,8.3651 µM
same,VEGF_ADSC\ECFC Angio Hoechst NucArea IC50/EC50,[2],> 10 µM
Clc1ccc(CCC(Cn2ccnc2)Sc2c(Cl)cccc2Cl)cc1 (centres unmarked) [NCGC00179596-03],VEGF_ADSC\ECFC Angio CD31 TubeArea IC50/EC50,[1],3.5313 µM
same,hNCI-H716 GLP1 Secretion IC50/EC50,NCI-H716 cells; assay number 12,15.9807 µM
same,mSTC-1 GLP1 Secretion IC50/EC50,STC-1 cell line; assay number 13,6.9953 µM
same,Basal_Viability ATP DLD-1 IC50/EC50,DLD-1; assay number 23,1.8367 µM
same,Basal_Viability ATP SW480 IC50/EC50,SW480; assay number 24,1.6936 µM
same,Basal_Viability ATP HCT116 IC50/EC50,"HCT116; assay number 25, basal",2.0642 µM
same,GSK3b inh pretreated_Viability ATP HCT116 IC50/EC50,[3]; [4],0.8414 µM
same,Basal_Viability ATP Colo 320 IC50/EC50,Colo320; assay number 27,0.2211 µM
same,Basal_Viability ATP HT-29 IC50/EC50,HT-29; assay number 28,3.009 µM
same,Basal_Viability ATP RKO IC50/EC50,RKO; assay number 29,2.3045 µM
same,Basal_Viability ATP SNU-C1 IC50/EC50,SNU-C1; assay number 30,0.9956 µM
same,VEGF_ADSC\ECFC Angio Hoechst NucArea IC50/EC50,[2],6.743 µM
CN1CCN(CCCN2c3ccccc3Sc3ccc(C(F)(F)F)cc32)CC1.Cl.Cl [NCGC00186653-01],"IC50/EC50, VEGF_ADSC\ECFC Angio CD31 TubeArea (assay number 2)",[1],> 10 µM
same,"IC50/EC50, hNCI-H716 GLP1 Secretion (assay number 12)",NCI-H716 cells,> 40 µM
same,"IC50/EC50, mSTC-1 GLP1 Secretion (assay number 13)",STC-1 cell line,> 40 µM
same,"IC50/EC50, Basal_Viability ATP DLD-1 (assay number 23)",DLD-1,7.3544 µM
same,"IC50/EC50, Basal_Viability ATP SW480 (assay number 24)",SW480,2.723 µM
same,"IC50/EC50, Basal_Viability ATP HCT116 (assay number 25)",HCT116,7.225 µM
same,"IC50/EC50, GSK3b inh pretreated_Viability ATP HCT116 (assay number 26)",[3],3.234 µM
same,"IC50/EC50, Basal_Viability ATP Colo 320 (assay number 27)",Colo320,2.3611 µM
same,"IC50/EC50, Basal_Viability ATP HT-29 (assay number 28)",HT-29,2.8136 µM
same,"IC50/EC50, Basal_Viability ATP RKO (assay number 29)",RKO,0.5653 µM
same,"IC50/EC50, Basal_Viability ATP SNU-C1 (assay number 30)",SNU-C1,2.6302 µM
same,"IC50/EC50, VEGF_ADSC\ECFC Angio Hoechst NucArea (assay number 3)",[2],> 10 µM
FC(F)(F)C(F)(F)C(F)(F)C(F)(F)C(F)(F)C(F)(F)C(F)(F)C(F)(F)Br [NCGC00166217-02],5mMGluc_INS1E SecretionMod IC50/EC50,"INS-1E cells; assay number 8, 5 mM glucose",> 33.33 µM
same,hNCI-H716 GLP1 Secretion IC50/EC50,NCI-H716 cells; assay number 12,> 40 µM
same,mSTC-1 GLP1 Secretion IC50/EC50,STC-1 cell line; assay number 13,> 40 µM
CCN(CC)CCOc1ccc(C(O)(Cc2ccc(Cl)cc2)c2ccc(C)cc2)cc1 (centres unmarked) [NCGC00165907-03],VEGF_ADSC\ECFC Angio CD31 TubeArea IC50/EC50,[1],3.2104 µM
same,hNCI-H716 GLP1 Secretion IC50/EC50,NCI-H716 cells; assay number 12,36.1068 µM
same,mSTC-1 GLP1 Secretion IC50/EC50,STC-1 cell line; assay number 13,> 40 µM
same,Hela CellCycMod PI 2N IC50/EC50,"HeLa cells; assay number 14, 2N",> 10 µM
same,Hela CellCycMod PI S Phase IC50/EC50,"HeLa cells; assay number 15, S phase",> 10 µM
same,Hela CellCycMod PI 4N IC50/EC50,"HeLa cells; assay number 16, 4N",> 10 µM
same,Hela CellCycMod PI MI IC50/EC50,"HeLa cells; assay number 17, MI",> 10 µM
same,Hela CellCycMod PI Cell Number IC50/EC50,"HeLa cells; assay number 18, cell number",> 10 µM
same,Basal_Viability ATP DLD-1 IC50/EC50,"DLD-1; assay number 23, basal",> 20 µM
same,Basal_Viability ATP SW480 IC50/EC50,"SW480; assay number 24, basal",3.7592 µM
same,Basal_Viability ATP HCT116 IC50/EC50,"HCT116; assay number 25, basal",> 20 µM
same,GSK3b inh pretreated_Viability ATP HCT116 IC50/EC50,[3]; [4],3.7372 µM
same,Basal_Viability ATP Colo 320 IC50/EC50,"Colo320; assay number 27, basal",8.9928 µM
same,Basal_Viability ATP HT-29 IC50/EC50,"HT-29; assay number 28, basal",3.1665 µM
same,Basal_Viability ATP RKO IC50/EC50,"RKO; assay number 29, basal",0.2987 µM
same,Basal_Viability ATP SNU-C1 IC50/EC50,"SNU-C1; assay number 30, basal",2.4577 µM
same,VEGF_ADSC\ECFC Angio Hoechst NucArea IC50/EC50,[2],6.977 µM
O=C(CBr)Nc1ccc(Cl)cc1C(=O)c1ccccc1F [NCGC00253724-01],VEGF_ADSC\ECFC Angio CD31 TubeArea IC50/EC50,[1],> 10 µM
same,5mMGluc_INS1E SecretionMod IC50/EC50,"INS-1E cells; assay number 8, 5 mM glucose",> 33.33 µM
same,hNCI-H716 GLP1 Secretion IC50/EC50,NCI-H716 cells; assay number 12,> 40 µM
same,mSTC-1 GLP1 Secretion IC50/EC50,STC-1 cell line; assay number 13,> 40 µM
same,VEGF_ADSC\ECFC Angio Hoechst NucArea IC50/EC50,[2],> 10 µM
Cn1cc([S+](C)[O-])c(=O)c2ccc(F)cc21 (centres unmarked) [NCGC00183849-01],VEGF_ADSC\ECFC Angio CD31 TubeArea IC50/EC50,[1],> 10 µM
same,5mMGluc_INS1E SecretionMod IC50/EC50,"INS-1E cells; assay number 8, 5 mM glucose",> 33.33 µM
same,hNCI-H716 GLP1 Secretion IC50/EC50,NCI-H716 cells; assay number 12,> 40 µM
same,mSTC-1 GLP1 Secretion IC50/EC50,STC-1 cell line; assay number 13,> 40 µM
same,VEGF_ADSC\ECFC Angio Hoechst NucArea IC50/EC50,[2],> 10 µM
C/C(=C(\CCOC(=O)C(C)C)SS/C(CCOC(=O)C(C)C)=C(/C)N(C=O)Cc1cnc(C)nc1N)N(C=O)Cc1cnc(C)nc1N [NCGC00167456-02],5mMGluc_INS1E SecretionMod IC50/EC50,"INS-1E cells; assay number 8, 5 mM glucose",> 33.33 µM
same,hNCI-H716 GLP1 Secretion IC50/EC50,NCI-H716 cells; assay number 12,2.3879 µM
same,mSTC-1 GLP1 Secretion IC50/EC50,STC-1 cell line; assay number 13,> 40 µM
